Results reported in PubChem BioAssay (NCI).
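Interpolation was linear, between the two tested concentrations surrounding the appropriate level; five concentrations were tested over 48 hours in 96-well plates. The concentration for full growth arrest is given as TGI.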

Legend:
Assay in all cases: growth of human tumour cells (NCI), 48 h
NCI-H226 lung = tested on: NCI-H226 lung
EKVX NSCLC = tested on: EKVX NSCLC
HCC-2998 colon = tested on: HCC-2998 colon
COLO 205 colon = tested on: COLO 205 colon
HOP-62 NSCLC = tested on: HOP-62 NSCLC
M14 melanoma = tested on: M14 melanoma
786-0 renal = tested on: 786-0 renal
DU-145 prostate = tested on: DU-145 prostate
RXF 393 renal = tested on: RXF 393 renal
SNB-75 CNS = tested on: SNB-75 CNS
OVCAR-8 ovarian = tested on: OVCAR-8 ovarian
SK-MEL-28 melanoma = tested on: SK-MEL-28 melanoma
ACHN renal = tested on: ACHN renal
SK-MEL-5 melanoma = tested on: SK-MEL-5 melanoma
CAKI-1 renal = tested on: CAKI-1 renal
MOLT-4 leukemia = tested on: MOLT-4 leukemia
NCI/ADR-RES ovarian = tested on: NCI/ADR-RES ovarian
PC-3 prostate = tested on: PC-3 prostate
MDA-MB-435 = tested on: MDA-MB-435
UACC-62 melanoma = tested on: UACC-62 melanoma
SW-620 colon = tested on: SW-620 colon
MCF7 breast = tested on: MCF7 breast
TK-10 renal = tested on: TK-10 renal
CCRF-CEM leukemia = tested on: CCRF-CEM leukemia
UACC-257 melanoma = tested on: UACC-257 melanoma
KM12 colon = tested on: KM12 colon
RPMI-8226 leukemia = tested on: RPMI-8226 leukemia
U251 CNS = tested on: U251 CNS
UO-31 renal = tested on: UO-31 renal
NCI-H522 lung = tested on: NCI-H522 lung
LOX IMVI melanoma = tested on: LOX IMVI melanoma
SF-295 CNS = tested on: SF-295 CNS
BT-549 breast = tested on: BT-549 breast
A498 renal = tested on: A498 renal
SK-MEL-2 melanoma = tested on: SK-MEL-2 melanoma
IGROV1 ovarian = tested on: IGROV1 ovarian
A549 NSCLC = tested on: A549 NSCLC
OVCAR-4 ovarian = tested on: OVCAR-4 ovarian
T-47D breast = tested on: T-47D breast
HCT-15 colon = tested on: HCT-15 colon
SNB-19 CNS = tested on: SNB-19 CNS
HS 578T breast = tested on: HS 578T breast
HT29 colon = tested on: HT29 colon
OVCAR-5 ovarian = tested on: OVCAR-5 ovarian
MALME-3M melanoma = tested on: MALME-3M melanoma
HOP-92 NSCLC = tested on: HOP-92 NSCLC
SF-268 CNS = tested on: SF-268 CNS
HCT-116 colon = tested on: HCT-116 colon
MDA-N = tested on: MDA-N
SN12C renal = tested on: SN12C renal
OVCAR-3 ovarian = tested on: OVCAR-3 ovarian
SK-OV-3 ovarian = tested on: SK-OV-3 ovarian
K-562 leukemia = tested on: K-562 leukemia
NCI-H460 lung = tested on: NCI-H460 lung
HL-60(TB) leukemia = tested on: HL-60(TB) leukemia
SF-539 CNS = tested on: SF-539 CNS
SR leukemia = tested on: SR leukemia
MDA-MB-231 breast = tested on: MDA-MB-231 breast
NCI-H23 lung = tested on: NCI-H23 lung

`NC(N)=N/N=C/c1c(-c2ccc(Cl)cc2)nc2n1CCS2` showed a TGI (NCI-H226 lung) of 41 µM, a TGI (EKVX NSCLC) of 30.4 µM and a TGI (HCC-2998 colon) of 8.39 µM. It also gave a TGI (COLO 205 colon) of 14.3 µM, a TGI (HOP-62 NSCLC) of 27.4 µM and a TGI (M14 melanoma) of 11.1 µM. The TGI (786-0 renal) was 17.1 µM, the TGI (DU-145 prostate) was 25.5 µM and the TGI (RXF 393 renal) was 24.5 µM. For the same molecule, the TGI (SNB-75 CNS) was 26.2 µM, the TGI (OVCAR-8 ovarian) was 29.5 µM and the TGI (SK-MEL-28 melanoma) was 26.8 µM. It also gave a TGI (ACHN renal) of 27 µM, a TGI (SK-MEL-5 melanoma) of 10.3 µM and a TGI (CAKI-1 renal) of 28 µM. It also gave a TGI (MOLT-4 leukemia) of 17.3 µM, a TGI (NCI/ADR-RES ovarian) of 32.6 µM and a TGI (PC-3 prostate) of 18.2 µM. The TGI (MDA-MB-435) was 25.6 µM, the TGI (UACC-62 melanoma) was 24.6 µM and the TGI (SW-620 colon) was 21 µM. It also gave a TGI (MCF7 breast) of 27.9 µM, a TGI (TK-10 renal) of 29.4 µM and a TGI (CCRF-CEM leukemia) of 16.9 µM. It also gave a TGI (UACC-257 melanoma) of 28 µM, a TGI (KM12 colon) of 24.2 µM and a TGI (RPMI-8226 leukemia) of 26.9 µM. For the same molecule, the TGI (U251 CNS) was 28.5 µM, the TGI (UO-31 renal) was 25.5 µM and the TGI (NCI-H522 lung) was 28.7 µM. For the same molecule, the TGI (LOX IMVI melanoma) was 18 µM, the TGI (SF-295 CNS) was 11.3 µM and the TGI (BT-549 breast) was 28 µM. For the same molecule, the TGI (A498 renal) was 26.4 µM, the TGI (SK-MEL-2 melanoma) was 24.2 µM and the TGI (IGROV1 ovarian) was 27.5 µM. The TGI (A549 NSCLC) was 22.2 µM, the TGI (OVCAR-4 ovarian) was 28.6 µM and the TGI (T-47D breast) was 34.8 µM. It also gave a TGI (HCT-15 colon) of 28.8 µM, a TGI (SNB-19 CNS) of 32.6 µM and a TGI (HS 578T breast) of 58.8 µM. For the same molecule, the TGI (HT29 colon) was 21.1 µM, the TGI (OVCAR-5 ovarian) was 28.3 µM and the TGI (MALME-3M melanoma) was 30.9 µM. For the same molecule, the TGI (HOP-92 NSCLC) was 22.6 µM, the TGI (SF-268 CNS) was 25.3 µM and the TGI (HCT-116 colon) was 16.4 µM. It also gave a TGI (MDA-N) of 23.3 µM, a TGI (SN12C renal) of 29.5 µM and a TGI (OVCAR-3 ovarian) of 22.1 µM. It also gave a TGI (SK-OV-3 ovarian) of 27 µM, a TGI (K-562 leukemia) of 20 µM and a TGI (NCI-H460 lung) of 26.9 µM. The TGI (HL-60(TB) leukemia) was over 100 µM and the TGI (SF-539 CNS) was 25 µM.
`Cc1cccc2c(=O)c3c(O)cc4c(c3n(C)c12)C=CC(C)(C)O4` was tested, and the TGI (NCI-H226 lung) was over 100 µM, the TGI (EKVX NSCLC) was over 100 µM and the TGI (HCC-2998 colon) was over 100 µM. It also gave a TGI (COLO 205 colon) of over 100 µM, a TGI (HOP-62 NSCLC) of over 100 µM and a TGI (M14 melanoma) of over 100 µM. For the same molecule, the TGI (786-0 renal) was over 100 µM, the TGI (DU-145 prostate) was over 100 µM and the TGI (RXF 393 renal) was 38 µM. The TGI (SNB-75 CNS) was over 100 µM, the TGI (OVCAR-8 ovarian) was over 100 µM and the TGI (SK-MEL-28 melanoma) was over 100 µM. It also gave a TGI (ACHN renal) of over 100 µM, a TGI (SK-MEL-5 melanoma) of over 100 µM and a TGI (CAKI-1 renal) of over 100 µM. The TGI (MOLT-4 leukemia) was over 100 µM, the TGI (NCI/ADR-RES ovarian) was over 100 µM and the TGI (PC-3 prostate) was over 100 µM. The TGI (MDA-MB-435) was over 100 µM, the TGI (UACC-62 melanoma) was over 100 µM and the TGI (SW-620 colon) was over 100 µM. It also gave a TGI (MCF7 breast) of over 100 µM, a TGI (TK-10 renal) of over 100 µM and a TGI (CCRF-CEM leukemia) of over 100 µM. For the same molecule, the TGI (UACC-257 melanoma) was over 100 µM, the TGI (KM12 colon) was over 100 µM and the TGI (RPMI-8226 leukemia) was 66.5 µM. For the same molecule, the TGI (U251 CNS) was over 100 µM, the TGI (NCI-H522 lung) was over 100 µM and the TGI (LOX IMVI melanoma) was over 100 µM. For the same molecule, the TGI (SF-295 CNS) was over 100 µM, the TGI (BT-549 breast) was over 100 µM and the TGI (A498 renal) was over 100 µM. For the same molecule, the TGI (SR leukemia) was 54.6 µM, the TGI (SK-MEL-2 melanoma) was over 100 µM and the TGI (IGROV1 ovarian) was over 100 µM. The TGI (A549 NSCLC) was over 100 µM, the TGI (OVCAR-4 ovarian) was over 100 µM and the TGI (HCT-15 colon) was over 100 µM. For the same molecule, the TGI (SNB-19 CNS) was over 100 µM, the TGI (HS 578T breast) was over 100 µM and the TGI (HT29 colon) was 36.8 µM. For the same molecule, the TGI (OVCAR-5 ovarian) was over 100 µM, the TGI (MDA-MB-231 breast) was over 100 µM and the TGI (MALME-3M melanoma) was over 100 µM. For the same molecule, the TGI (NCI-H23 lung) was over 100 µM, the TGI (HOP-92 NSCLC) was over 100 µM and the TGI (SF-268 CNS) was over 100 µM. The TGI (HCT-116 colon) was over 100 µM, the TGI (MDA-N) was over 100 µM and the TGI (SN12C renal) was over 100 µM. It also gave a TGI (OVCAR-3 ovarian) of over 100 µM, a TGI (SK-OV-3 ovarian) of over 100 µM and a TGI (K-562 leukemia) of 48 µM. For the same molecule, the TGI (NCI-H460 lung) was over 100 µM, the TGI (HL-60(TB) leukemia) was over 100 µM and the TGI (SF-539 CNS) was over 100 µM.
